Entries after “also recorded” stand apart in the source; their conditions may differ. Where two headings read alike, the source gives them in different places.
Legend:
[1] = molecular target: T1, UGT1A4 (Homo sapiens, UniProt P22310); assay: UGT reaction phenotyping, recombinant Supersomes; assay type: in vitro ADME
T1 construct: purchased BD Biosciences
T1 sequence (P22310 29-534): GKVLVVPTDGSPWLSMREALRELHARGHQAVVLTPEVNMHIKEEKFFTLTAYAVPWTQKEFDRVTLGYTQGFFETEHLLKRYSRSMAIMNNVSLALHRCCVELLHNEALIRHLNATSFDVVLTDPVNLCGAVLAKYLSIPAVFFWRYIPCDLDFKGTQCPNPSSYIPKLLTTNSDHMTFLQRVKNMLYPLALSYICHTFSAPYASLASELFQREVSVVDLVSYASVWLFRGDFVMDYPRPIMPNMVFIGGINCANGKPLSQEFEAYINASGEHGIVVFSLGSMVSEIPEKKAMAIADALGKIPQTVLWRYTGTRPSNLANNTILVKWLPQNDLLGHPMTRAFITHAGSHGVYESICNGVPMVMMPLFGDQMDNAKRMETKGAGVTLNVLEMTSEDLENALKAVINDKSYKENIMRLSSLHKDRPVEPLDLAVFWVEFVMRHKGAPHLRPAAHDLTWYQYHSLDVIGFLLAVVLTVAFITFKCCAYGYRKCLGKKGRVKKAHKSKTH
Description: Experimental Summary: UGT Reaction Phenotyping (7 Isoforms).

[2] = system: lipopolysaccharide (LPS)-induced inflammation; assay: Rat LPS model, serum pro-inflammatory cytokines; assay type: in vivo, Sprague Dawley rats; details: oral, 4 days; 2 h after LPS
Method: This assay was employed to determine the efficacies of CBG, compound 1, and compound 2 against lipopolysaccharide (LPS)-induced inflammation in Sprague Dawley rats.
Eight- to 10-week-old male rats were treated with CBG, Compound 1, and Compound 2, or a positive control (cyclosporin A) for four days prior to treatment with LPS. Twenty-eight (28) Sprague Dawley male rats, 8-10 weeks old, were used for this study. Animals were randomized by weight into one of 7 treatment groups as shown in Table 10 below and treated for 4 days with either vehicle control (Groups 1 and 2), Cyclosporin A (Neoral) (Group 3), CBG at 30 mg/kg (Group 4), Compound 1 at 31.5 mg/kg (Group 5), Compound 2 at 32.7 mg/kg (Group 6) or CBG at 30 mg/kg (intraperitoneal/IP; Group 7). Groups 1-6 were dosed for 4 days by oral gavage; group 7 was dosed for 4 days by IP injection. After the 4th injection, Groups 2-7 received a single IP injection of LPS at 5 mg/kg to induce inflammation. Body weight was recorded every other day starting on the day of or day prior to the first day of treatment. A terminal body weight was recorded. General health and clinical signs were recorded once daily. Blood was collected to isolate immune cells at 2 hours after the LPS injection. […]
Serum samples (N=82) were processed and shipped to Inotiv Boulder for analysis. […] The samples were analyzed for cytokine levels using the RECYTMAG-65K Luminex™ kit. […]

[3] = PK and Tmax of CBD and Compound 3 after IP administration; assay type: in vivo; details: male C57BL/6 mice; for Cmax / AUC(0-t): mouse, in vivo; for AUC(0-t): read-out: AUC(0-t) (obs area)
Description: The purpose of this study was to determine the pharmacokinetics and time of maximum plasma (Tmax) of the test articles (TA) CBD and Compound 3 following intraperitoneal (IP) administration to male C57BL/6 mice. This method of TA delivery, dose and mouse strain was to be used in a subsequent Pentylenetetrazol (PTZ) induced seizure model for the evaluation of the TA's for anti-epileptic activity.

[4] = system: PTZ-induced seizure; assay: PTZ-induced epilepsy mouse model; assay type: in vivo; details: for Latency to Clonic Seizure Event compared to PTZ alone / Latency to First Seizure Event compared to PTZ alone / Latency to Tonic Seizure Event compared to PTZ alone / Percent of animals reaching Tonic-clonic Stage 6 compared to PTZ alone / Racine scores over 5 minute intervals for 30 minutes compared to PTZ alone / Survival Effects: mortality rate compared to the vehicle/PTZ group: PTZ 80 mg/kg, CBD 100 mg/kg 60 minutes prior, Compound 3 100 mg/kg 30 minutes prior to PTZ
Description: Mouse models using GABAa receptor antagonist Pentylenetetrazol (PTZ) are well defined and used as a standard for the identification of potential anticonvulsants to treat generalized clonic seizures (Loscher et al., 1991 Epilepsy Res 8:171-189). The purpose of this study was to evaluate and compare CBD to test article Compound 3, on their therapeutic effects in a mouse model of PTZ-induced seizure. To match up test article plasma concentration time max (Tmax) with the PTZ induced seizures; test articles were administered at 60 minutes and 30 minutes prior to PTZ administration respectively. Vehicle used for treatment groups was 10% EtOH/10% Tween 80/80% Saline.
Mice were acclimated to the procedure room for at least 30 minutes.
Pentylenetetrazole (PTZ; Sigma Aldrich) was formulated in water to a concentration of 16 mg/mL. Injections of PTZ were made at a volume of 5 mL/kg to produce a final dose of 80 mg/kg. […] A 30- • minute maximum latency to seizure was imposed. • Clinical behavior was scored using the following adapted Racine scale: • Score 0, no seizures observed • Score 1, Behavioral arrest (freezing, fixed gaze, staring), vibrissae twitching, • mouth or facial clonus • Score 2, Pop or jump, straub tail, foot splay, head nodding • Score 3, Forelimb clonus, extended forelimbs, multiple pops or jerks • Score 4, Rearing and bilateral forelimb clonus, Running and running/bouncing • Score 5, All limb clonus, rearing and falling (stay fallen on rear side) • Score 6, Tonic hindlimb extensions, cardiac arrest
Behavior was scored by an observer blind to treatment. The highest score reached during every 5 minute period during the 30 minutes after PTZ was administered was recorded. Additionally, the percent tonic-clonic (number of animals progressing to the highest seizure score), and percent mortality was also calculated.

[5] = system: HCT116; assay: GI50 by MTS assay; assay type: cell-based; details: MTS assay, HCT116, 48 hours
Method: For MTS assay, the compounds have been tested at 8 concentrations on 4 colon cancer cell lines for 48 hours. The compounds, concentrations and colon cancer cell line panel tested are the following: • CBG: 0 μM, 1.25 μM, 2.5 μM, 5 μM, 10 μM, 20 μM, 40 μM, and 80 μM. • Compound 1: 0 μM, 1.25 μM, 2.5 μM, 5 μM, 10 μM, 20 μM, 40 μM, and 80 μM. • Compound 2: 0 μM, 1.25 μM, 2.5 μM, 5 μM, 10 μM, 20 μM, 40 μM, and 80 μM. • Colon cancer cell line panel: SW620, HCT15, HT29, HCTl16
Four colon cancer cell lines of SW620, HCT15, HT29, and HCT116 were included in the colon cancer cell line panel.
CBG, compound 1 and compound 2 were dissolved in DMSO at a concentration of 10 mM and stored at −20° C.
Evaluation of DM compounds treatment-induced growth inhibition was performed to determine the GI50 of four colon cancer cell lines with MTS assay or clonogenic assay. Each experiment was repeated in triplicate. In GraphPad Prism, data were log-transformed and fit with a nonlinear curve to calculate the GI50.
MTS assay. cells were plated at 96 well plates at a density of 1,000 cells per well. After 24 hours, cells were treated with DM compounds at increasing concentrations or DMSO vehicle and incubated for 48 hours. 20 μl of MTS reagent (Promega) was then added and incubated for 2 hours. The absorbance was measured with a microplate reader at 490 nm. Each experiment was repeated in triplicate. In GraphPad Prism, data were log-transformed and fit with a nonlinear curve to calculate the GI50.

SMILES | Cmax ([3]; plasma, 100 mg/kg IP) [ng/mL] | AUC(0-t) ([3]; plasma, 100 mg/kg IP) [ng·h/mL] | Latency to Clonic Seizure Event compared to PTZ alone [4] | Latency to First Seizure Event compared to PTZ alone [4] | Latency to Tonic Seizure Event compared to PTZ alone [4] | Percent of animals reaching Tonic-clonic Stage 6 compared to PTZ alone [4] | Racine scores over 5 minute intervals for 30 minutes compared to PTZ alone [4] | Survival Effects: mortality rate compared to the vehicle/PTZ group [4] | also measured
C[N+]1([C@@H]2O[C@H](C(=O)[O-])[C@@H](O)[C@H](O)[C@H]2O)CCN(CCCN2c3ccccc3Sc3ccc(C(F)(F)F)cc32)CC1 [Trifluoperazine Glucuronide] | – | – | – | – | – | – | – | – | average peak area ratio at 60 min/average peak area ratio at 0 min (printed in the half-life column) ([1]; Test Conc. 1 μM): *6.38
C=C(C)[C@@H]1CCC(C)=C[C@H]1c1c(O)cc(CCCCC)cc1OC [Compound 3, (1′R,2′R)-6-methoxy-5′-methyl-4-pentyl-2′-(prop-1-en-2-yl)-1′,2′,3′,4′-tetrahydro-[1,1′-biphenyl]-2-ol] | 21800 | 30200 | did not yield a significantly different latency; also recorded: strong trend toward longer latency | trended towards a longer latency than PTZ alone, although the difference was not significant | significantly longer latency | significantly lower proportion | significant improvement in Racine scores | significantly reduced mortality rate | reduction of IL-1B and IFNy relative to CBG (in words) [2]: equal to or better than CBG; Cmax relative to CBD ([3]; IP): 8 fold; plasma PK Area Under the Curve (AUC) relative to CBD ([3]; IP): over 4 fold; TMax ([3]; plasma, 100 mg/kg IP): 0.5 h; overall anti-epileptic activity (in words) ([4]; PTZ seizure model): clear anti-epileptic therapeutic activity
C=C(C)[C@@H]1CCC(C)=C[C@H]1c1c(O)cc(CCCCC)cc1O [CBD, cannabidiol, reference compound] | 2730 | 6830 | did not yield a significantly different latency | did not result in a difference in latency to first seizure | did not yield a significantly different latency | did not yield a significantly difference in proportion; also recorded: did not yield a significant difference in proportion | did not yield a significant change in clinical score | did not yield a significantly reduced mortality rate | Tmax (in words) ([3]; IP): two separate Tmax peaks
CCCCCc1cc(O)c(C/C=C(\C)CCC=C(C)C)c(OC)c1 [Cmpd1] | – | – | – | – | – | – | – | – | GI50 ([5]; average of N1-N3, read-out: GI50 AVG): 10.3 µM; GI50 ([5]; replicate N1, read-out: GI50 N1): 10.5 µM; GI50 ([5]; replicate N2, read-out: GI50 N2): 9.96 µM; GI50 ([5]; replicate N3, read-out: GI50 N3): 10.5 µM
CN1CCN(CCCN2c3ccccc3Sc3ccc(C(F)(F)F)cc32)CC1 [Trifluoperazine, trifluoperazine] | – | – | – | – | – | – | – | – | microsomal CLint at 1 µM ([1]; human, recombinant UGT1A4 Supersomes, pH 7.4, Test Conc. 1 μM, read-out: Recombinant UGT CLINT Clearance): 0.7 µL/min/mg; half-life at 1 µM ([1]; human, recombinant UGT1A4 Supersomes, pH 7.4, Test Conc. 1 μM, read-out: Recombinant UGT Half Life T1/2): 16.4 h
